Measured values: patent publication US7666876B2, “Buprenorphine formulations for intranasal delivery” (Vernalis (R&D) Limited, priority 2002, dated 2010)

Assay: Effect of dextrose and mannitol concentration on buprenorphine solubility in pectin solution (hplc)
Details: aqueous solution containing 20 mg/ml pectin, across the measured pH range
Protocol: Solutions containing pectin (Slendid 100) (20 mg/ml) were prepared at pH 3, 4, 5 and 6 (pH adjustments were made with 0.1M HCl or 0.1M meglumine). […] An excess of buprenorphine hydrochloride was then added and the mixture stirred overnight at 18° C. Saturated buprenorphine hydrochloride solutions were produced by passing each mixture through a 0.2 μm polycarbonate membrane filter. The concentration of buprenorphine hydrochloride in the filtrate was determined by hplc.

Structure (SMILES): CO[C@]12CCC3(C[C@@H]1[C@@](C)(O)C(C)(C)C)[C@H]1Cc4ccc(O)c5c4[C@@]3(CCN1CC1CC1)C2O5 (stereo partly shown) [Buprenorphine]
- Effect of dextrose or mannitol concentration on buprenorphine solubility: not affected significantly
